Test results published in US6867299B2, “Oxamide IMPDH inhibitors” (Hoffmann-La Roche Inc., priority 2000, dated 2005).
Structures can show the parent of a compound that is named as a salt. One block for each compound: values may come before it.

Biological target: IMPDH (human type II) (Homo sapiens, UniProt P12268)
Test: IMPDH inhibitor assay, spectrophotometric (NADH formation at 340 nm)
Type: biochemical
Settings: 37° C., pH8.0, 2.5% DMSO, 10 concentrations of inhibitor
Method: IMPDH activity can be assayed using an adaptation of the method reported by Carr [S. Carr et al., J. Biol. Chem. 268, p.27286 (1993)], the disclosure of which is herein incorporated by reference. IMPDH activity was measured spectrophotometrically, by monitoring the increase in absorbance at 340 nm due to the formation of NADH (ε340 is 6220 M−1 cm−1) from the reduction of NAD. The IMPDH reaction mixture contained 0.1M Tris pH8.0, 0.1M KCl, 1 mM DTT, 3 mM EDTA, […]. The reaction was initiated by the addition of IMPDH (human type II) to a final concentration in the assay of between 1 nM and 5 nM with respect to the IMPDH tetramer. The initial rate is measured by following the linear increase in absorbance at 340 nm at 37° C. for 45 minutes. The reading was conducted using a Spectromax 190 (Molecular Devices) spectrophotometer in a 96 well plate format with a final reaction volume of 200 μl.
For inhibitor assay analysis, the compound is dissolved in DMSO to a final concentration of 10 mM and added to the initial reaction mixture as 5 μl to give final DMSO concentration of 2.5%. The enzyme reaction is initiated by the addition of IMPDH and the initial rates measured as above. IC50 determinations are made by measuring the initial rates in the presence of 10 concentrations of inhibitor and fitting the data using the 4 parameter curve fit from the Softmax pro software (Molecular Devices).

SMILES: COc1cc(NC(=O)C(=O)Nc2cccc(CNC(=O)c3ccccc3)c2)ccc1-c1cnco1 [N-[3-(Benzamidomethyl)phenyl]-N′-[3-methoxy-4-(5-oxazolyl)phenyl]oxalamide]
IC50: 13 nM

SMILES: COc1cc(NC(=O)C(=O)NC(C)(C)CC(C)(C)C)ccc1-c1cnco1 [N-[3-Methoxy-4-(5-oxazolyl)phenyl]-N′-(1,1,3,3-tetramethyl-butyl)oxalamide]
IC50: 34 nM

SMILES: COc1cc(NC(=O)C(=O)Nc2cccc(CNC(=O)OC(C)C)c2)ccc1-c1cnco1 [Isopropyl [3-[[[3-methoxy-4-(5-oxazolyl)anilino]oxalyl]amino]benzyl]carbamate]
IC50: 33 nM

SMILES: C#CC(C)(C)NC(=O)C(=O)Nc1ccc(-c2cnco2)c(OC)c1 [N-(1,1-Dimethylpropargyl)-N′-[3-methoxy-4-(5-oxazolyl)phenyl]oxalamide]
IC50: 48 nM

SMILES: COC(=O)NCc1cccc(NC(=O)C(=O)Nc2ccc(-c3cnco3)c(OC)c2)c1 [Methyl [3-[[[3-methoxy-4-(5-oxazolyl)anilino]oxalyl]amino]benzyl] carbamate]
IC50: 121 nM

SMILES: COc1cc(NC(=O)C(=O)Nc2cccc(CNC(=O)Oc3ccccc3)c2)ccc1-c1cnco1 [Phenyl [3-[[[4-(5-oxazolyl)anilino]oxalyl]amino]benzyl]carbamate]
IC50: 11 nM

SMILES: CCC(C)(C)NC(=O)C(=O)Nc1ccc(-c2cnco2)c(OC)c1 [N-(1,1-Dimethylpropyl)-N′-[3-methoxy-4-(5-oxazolyl)phenyl]oxalamide]
IC50: 31 nM

SMILES: COc1cc(NC(=O)C(=O)Nc2cccc(CN)c2)ccc1-c1cnco1 [N-[3-(Aminomethyl)phenyl]-N′-[3-methoxy-4-(5-oxazolyl)phenyl]oxalamide trifluoroacetate (1:1)]
IC50: 233 nM

SMILES: COc1cc(NC(=O)C(=O)NC(C)(C)CO)ccc1-c1cnco1 [N-(2-Hydroxy-1,1-dimethylethyl)-N′-[3-methoxy-4-(5-oxazolyl)phenyl]oxalamide]
IC50: 72 nM

SMILES: COc1cc(NC(=O)C(=O)NC(C)(C)CN(C)C)ccc1-c1cnco1 [N-(2-Dimethylamino-1,1-dimethylethyl)-N′-[3-methoxy-4-(5-oxazolyl)phenyl]oxalamide hydrochloride (1:1)]
IC50: 170 nM

SMILES: COc1cc(NC(=O)C(=O)NC(C)(C)Cc2ccccc2)ccc1-c1cnco1 [N-(1,1-Dimethyl-2-phenylethyl)-N′-[3-methoxy-4-(5-oxazolyl)phenyl]oxalamide]
IC50: 15 nM

SMILES: COc1cc(NC(=O)C(=O)NC(C)(C)CN)ccc1-c1cnco1 [N-(2-Amino-1,1-dimethylethyl)-N′-[3-methoxy-4-(5-oxazolyl)kphenyl]oxalamide trifluoroacetate (1:1)]
IC50: 97 nM

The remaining lines, values ahead:

IC50: 199 nM
SMILES: CNC(=O)C(C)(C)NC(=O)C(=O)Nc1ccc(-c2cnco2)c(OC)c1 [N-[3-Methoxy-4-(5-oxazolyl)phenyl]-N′-[1-methyl-1-(methylcarbamoyl)ethyl]oxalamide]

IC50: 460 nM
SMILES: COc1cc(NC(=O)C(=O)NC(C)(C)C)ccc1-c1cocn1 [N-tert-Butyl-N′-[3-methoxy-4-(4-oxazolyl)phenyl]oxalamide]

IC50: 75 nM
SMILES: COc1cc(NC(=O)C(=O)NC(C)(C)CNC(=O)OC(C)(C)C)ccc1-c1cnco1 [tert-Butyl [2-[[[3-methoxy-4-(5-oxazolyl)anilino]oxalyl]amino]-2-methylpropyl]carbamate]

IC50: 30 nM
SMILES: COc1cc(NC(=O)C(=O)NC(C)(C)c2ccccc2)ccc1-c1cnco1 [N-[3-Methoxy-4-(5-oxazolyl)phenyl]-N′-(1-methyl-1-phenylethyl)oxalamide]

IC50: 10 nM
SMILES: COc1cc(NC(=O)C(=O)NC(C)(C)Cc2ccc([N+](=O)[O-])cc2)ccc1-c1cnco1 [N-[3-Methoxy-4-(5-oxazolyl)phenyl]-N′-[1,1-dimethyl-2-(4-nitrophenyl)ethyl]oxalamide]

IC50: 36 nM
SMILES: COc1cc(NC(=O)C(=O)Nc2cccc(CNC(=O)OC(C)(C)C)c2)ccc1-c1cnco1 [tert-Butyl [3-[[[3-methoxy-4-(5-oxazolyl)anilino]oxalyl]amino]benzyl]carbamate]

IC50: 169 nM
SMILES: CC(C)(C)NC(=O)C(=O)Nc1ccc(-c2cnco2)c(Cl)c1 [N-tert-Butyl-N′-[3-chloro-4-(5-oxazolyl)phenyl]oxalamide]

IC50: 35 nM
SMILES: COc1cc(NC(=O)C(=O)Nc2cccc(CC(=O)Nc3ccccc3)c2)ccc1-c1cnco1 [N-[3-Methoxy-4-(5-oxazolyl)phenyl]-N′-[3-[(phenylcarbamoyl)methyl]phenyl]oxalamide]

IC50: 44 nM
SMILES: COc1cc(NC(=O)C(=O)Nc2cccc(CNC(=O)O[C@H]3CCOC3)c2)ccc1-c1cnco1 [[3-[[[3-Methoxy-4-(5-oxazolyl)anilino]oxalyl]amino]benzyl]carbamic acid tetrahydro-3(S)-furyl ester]

IC50: 125 nM
SMILES: COc1cc(NC(=O)C(=O)Nc2cccc(CNS(=O)(=O)c3ccccc3)c2)ccc1-c1cnco1 [N-[3-[(Benzenesulfonamido)methyl]phenyl]-N′-[3-methoxy-4-(5-oxazolyl)phenyl]oxalamide]

IC50: 37 nM
SMILES: COc1cc(NC(=O)C(=O)NC(C)(C)C)ccc1-c1cnco1 [N-tert-Butyl-N′-[3-methoxy-4-(5-oxazolyl)phenyl]oxalamide]

IC50: 277 nM
SMILES: COc1cc(NC(=O)C(=O)Nc2cccnc2)ccc1-c1cnco1 [N-[3-Methoxy-4-(5-oxazolyl)phenyl]-N′-(3-pyridyl)oxalamide]
